Experimental data published in publication PMC4881381, “Subcellular Localization of Galloylated Catechins in Tea Plants [Camellia sinensis (L.) O. Kuntze] Assessed via Immunohistochemistry” (Frontiers in Plant Science, 2016).

Target: T1, anti-galloylated catechin monoclonal antibody (mAb) P6C2
T1 construct: whole purified mAb (~150 kDa; 50 kDa heavy and 25 kDa light chains), biotinylated
Assay: bio-layer interferometry (ForteBio Octet Red […], SSA biosensors); direct ELISA
Format: binding

Compound | Kd
O=C(O[C@@H]1Cc2c(O)cc(O)cc2O[C@@H]1c1ccc(O)c(O)c1)c1cc(O)c(O)c(O)c1 [ECG, (-)-epicatechin-3-gallate] | 0.197 µM
O=C(O[C@@H]1Cc2c(O)cc(O)cc2O[C@@H]1c1cc(O)c(O)c(O)c1)c1cc(O)c(O)c(O)c1 [EGCG, (-)-epigallocatechin-3-gallate] | 9.25 µM
